From ChEMBL document CHEMBL5543163, “Druglike, 18F-labeled PET Tracers Targeting Fibroblast Activation Protein” (J Med Chem, 2024)

What was measured:
Prolyl endopeptidase FAP = target: T1, Prolyl endopeptidase FAP (Homo sapiens, UniProt Q12884); test: Inhibition of FAP (unknown origin) using Z-Gly-Pro-7-amino-4-methylcoumarine as fluorogenic substrate preincubated for 15 mins followed by substrate addition and measured after 15 mins
T1 sequence (Q12884 whole entry): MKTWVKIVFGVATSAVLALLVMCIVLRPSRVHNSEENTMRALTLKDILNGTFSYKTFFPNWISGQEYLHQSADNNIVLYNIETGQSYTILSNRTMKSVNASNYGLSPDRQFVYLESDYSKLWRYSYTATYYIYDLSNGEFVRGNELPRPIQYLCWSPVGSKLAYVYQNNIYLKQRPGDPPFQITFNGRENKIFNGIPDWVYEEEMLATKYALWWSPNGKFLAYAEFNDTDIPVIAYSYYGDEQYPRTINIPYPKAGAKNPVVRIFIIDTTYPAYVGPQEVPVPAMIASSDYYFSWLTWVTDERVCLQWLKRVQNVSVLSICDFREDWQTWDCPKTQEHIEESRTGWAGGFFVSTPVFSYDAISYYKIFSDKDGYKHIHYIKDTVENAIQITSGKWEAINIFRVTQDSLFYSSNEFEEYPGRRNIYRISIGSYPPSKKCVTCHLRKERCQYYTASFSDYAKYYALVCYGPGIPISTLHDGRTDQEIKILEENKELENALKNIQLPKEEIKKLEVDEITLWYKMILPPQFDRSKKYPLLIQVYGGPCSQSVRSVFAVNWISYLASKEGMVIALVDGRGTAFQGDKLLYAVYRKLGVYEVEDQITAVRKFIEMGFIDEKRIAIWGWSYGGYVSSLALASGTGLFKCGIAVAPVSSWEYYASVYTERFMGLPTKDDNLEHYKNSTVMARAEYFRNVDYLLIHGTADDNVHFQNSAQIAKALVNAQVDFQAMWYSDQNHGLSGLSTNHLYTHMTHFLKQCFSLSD

Dipeptidyl peptidase 4 = Dipeptidyl peptidase 4 (Homo sapiens, UniProt P27487); test: Inhibition of DPP4 (unknown origin) using Ala-Pro-paranitroanilide as chromogenic substrate preincubated for 15 mins followed by substrate addition and measured after 15 mins
Sequence of Dipeptidyl peptidase 4 (P27487 whole entry): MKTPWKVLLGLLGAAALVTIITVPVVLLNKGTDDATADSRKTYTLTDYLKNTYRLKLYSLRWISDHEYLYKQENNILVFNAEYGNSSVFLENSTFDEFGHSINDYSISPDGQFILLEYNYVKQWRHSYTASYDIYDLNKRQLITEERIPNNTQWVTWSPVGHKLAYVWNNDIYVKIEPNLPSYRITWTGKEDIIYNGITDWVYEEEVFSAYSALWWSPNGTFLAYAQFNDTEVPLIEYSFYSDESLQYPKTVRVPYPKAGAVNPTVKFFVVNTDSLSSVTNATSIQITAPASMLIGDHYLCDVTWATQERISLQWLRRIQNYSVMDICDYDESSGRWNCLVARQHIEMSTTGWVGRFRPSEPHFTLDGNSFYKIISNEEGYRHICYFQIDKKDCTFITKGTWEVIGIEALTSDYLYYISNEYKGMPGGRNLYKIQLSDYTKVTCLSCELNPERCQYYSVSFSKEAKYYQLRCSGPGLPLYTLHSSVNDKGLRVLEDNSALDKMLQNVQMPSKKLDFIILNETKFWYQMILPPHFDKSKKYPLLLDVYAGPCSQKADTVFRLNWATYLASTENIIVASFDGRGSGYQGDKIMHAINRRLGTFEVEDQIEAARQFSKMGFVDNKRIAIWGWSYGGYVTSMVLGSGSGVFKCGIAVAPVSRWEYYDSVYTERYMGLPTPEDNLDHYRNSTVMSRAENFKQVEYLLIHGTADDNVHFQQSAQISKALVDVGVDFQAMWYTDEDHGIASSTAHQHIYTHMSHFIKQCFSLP

Dipeptidyl peptidase 8 = Dipeptidyl peptidase 8 (Homo sapiens, UniProt Q6V1X1); test: Inhibition of DPP8 (unknown origin) using Ala-Pro-paranitroanilide as chromogenic substrate preincubated for 15 mins followed by substrate addition and measured after 15 mins
Sequence of Dipeptidyl peptidase 8 (Q6V1X1 whole entry): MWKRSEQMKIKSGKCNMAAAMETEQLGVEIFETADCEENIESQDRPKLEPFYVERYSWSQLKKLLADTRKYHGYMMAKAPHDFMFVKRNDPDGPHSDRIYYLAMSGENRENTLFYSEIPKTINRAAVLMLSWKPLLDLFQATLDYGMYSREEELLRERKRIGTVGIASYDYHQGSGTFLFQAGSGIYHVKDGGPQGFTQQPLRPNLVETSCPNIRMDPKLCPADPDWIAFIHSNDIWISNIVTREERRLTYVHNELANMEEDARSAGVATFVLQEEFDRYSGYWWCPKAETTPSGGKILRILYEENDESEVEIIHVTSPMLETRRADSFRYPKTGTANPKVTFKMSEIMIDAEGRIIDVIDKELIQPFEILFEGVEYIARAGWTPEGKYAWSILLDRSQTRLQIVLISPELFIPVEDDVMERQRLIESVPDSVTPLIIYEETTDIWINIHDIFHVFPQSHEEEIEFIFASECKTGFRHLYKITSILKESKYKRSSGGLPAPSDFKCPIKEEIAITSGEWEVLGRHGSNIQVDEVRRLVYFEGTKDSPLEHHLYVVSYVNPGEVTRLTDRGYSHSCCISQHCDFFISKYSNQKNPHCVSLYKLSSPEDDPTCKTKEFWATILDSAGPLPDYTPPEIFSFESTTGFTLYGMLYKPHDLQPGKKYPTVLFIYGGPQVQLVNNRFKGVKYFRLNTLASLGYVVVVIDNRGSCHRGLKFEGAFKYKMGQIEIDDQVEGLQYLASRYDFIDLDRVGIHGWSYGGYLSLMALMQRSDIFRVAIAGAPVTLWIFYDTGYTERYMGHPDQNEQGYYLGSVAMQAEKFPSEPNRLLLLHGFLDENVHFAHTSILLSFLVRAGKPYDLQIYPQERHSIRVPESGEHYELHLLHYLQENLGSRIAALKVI

Dipeptidyl peptidase 9 = Dipeptidyl peptidase 9 (Homo sapiens, UniProt Q86TI2); test: Inhibition of DPP9 (unknown origin) using Ala-Pro-paranitroanilide as chromogenic substrate preincubated for 15 mins followed by substrate addition and measured after 15 mins
Sequence of Dipeptidyl peptidase 9 (Q86TI2 whole entry): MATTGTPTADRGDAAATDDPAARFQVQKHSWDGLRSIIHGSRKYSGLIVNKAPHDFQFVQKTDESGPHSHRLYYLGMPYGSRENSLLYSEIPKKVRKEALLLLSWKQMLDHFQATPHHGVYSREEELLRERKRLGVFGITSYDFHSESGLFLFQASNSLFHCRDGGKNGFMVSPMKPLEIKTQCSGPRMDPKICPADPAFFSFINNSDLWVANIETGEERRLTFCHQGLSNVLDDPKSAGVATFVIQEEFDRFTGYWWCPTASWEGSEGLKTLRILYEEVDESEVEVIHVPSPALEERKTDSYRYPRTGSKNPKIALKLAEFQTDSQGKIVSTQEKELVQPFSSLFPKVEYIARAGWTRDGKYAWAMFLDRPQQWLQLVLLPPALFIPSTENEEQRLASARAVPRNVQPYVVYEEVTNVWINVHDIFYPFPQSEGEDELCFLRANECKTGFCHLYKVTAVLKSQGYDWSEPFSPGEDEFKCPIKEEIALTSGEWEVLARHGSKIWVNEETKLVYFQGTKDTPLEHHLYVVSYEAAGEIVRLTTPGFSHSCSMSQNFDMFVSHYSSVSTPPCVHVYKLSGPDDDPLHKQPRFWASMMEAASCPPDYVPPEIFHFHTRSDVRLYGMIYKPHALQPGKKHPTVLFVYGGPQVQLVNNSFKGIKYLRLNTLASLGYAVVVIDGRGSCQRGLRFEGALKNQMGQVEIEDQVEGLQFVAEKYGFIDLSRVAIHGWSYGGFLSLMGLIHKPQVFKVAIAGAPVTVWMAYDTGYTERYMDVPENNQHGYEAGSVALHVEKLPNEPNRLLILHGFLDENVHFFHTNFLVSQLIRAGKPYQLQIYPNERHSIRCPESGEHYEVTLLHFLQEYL

Dipeptidyl peptidase 2 = Dipeptidyl peptidase 2 (Homo sapiens, UniProt Q9UHL4); test: Inhibition of DPP2 (unknown origin) using Lys-Ala-pNA as substrate preincubated for 15 mins followed by substrate addition and measured after 15 mins
Prolyl endopeptidase = target: T2, Prolyl endopeptidase (Homo sapiens, UniProt P48147); test: Inhibition of PREP (unknown origin) using N-succinyl-Gly-Pro-AMC as substrate preincubated for 15 mins followed by substrate addition and measured after 15 mins
T2 sequence (P48147 whole entry): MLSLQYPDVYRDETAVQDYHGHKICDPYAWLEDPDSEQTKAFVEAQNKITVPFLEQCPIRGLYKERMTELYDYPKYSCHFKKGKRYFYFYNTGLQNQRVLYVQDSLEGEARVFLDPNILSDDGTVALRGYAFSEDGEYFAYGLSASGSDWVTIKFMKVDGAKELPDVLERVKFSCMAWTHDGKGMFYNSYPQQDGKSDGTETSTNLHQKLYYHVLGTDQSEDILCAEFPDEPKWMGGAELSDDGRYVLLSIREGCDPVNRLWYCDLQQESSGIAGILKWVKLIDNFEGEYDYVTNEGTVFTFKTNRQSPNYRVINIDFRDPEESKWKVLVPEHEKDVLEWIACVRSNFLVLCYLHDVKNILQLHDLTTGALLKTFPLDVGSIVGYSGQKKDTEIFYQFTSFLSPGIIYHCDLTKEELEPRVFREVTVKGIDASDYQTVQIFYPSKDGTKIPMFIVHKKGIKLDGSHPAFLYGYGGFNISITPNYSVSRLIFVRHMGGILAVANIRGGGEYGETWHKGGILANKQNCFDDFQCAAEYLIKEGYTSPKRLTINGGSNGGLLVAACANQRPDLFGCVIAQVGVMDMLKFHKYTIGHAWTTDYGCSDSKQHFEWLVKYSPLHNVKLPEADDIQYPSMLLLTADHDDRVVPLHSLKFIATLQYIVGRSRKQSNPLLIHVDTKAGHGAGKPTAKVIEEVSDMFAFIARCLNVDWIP

SMILES | IC50 (Prolyl endopeptidase FAP) | IC50 (Dipeptidyl peptidase 4) | IC50 (Dipeptidyl peptidase 8) | IC50 (Dipeptidyl peptidase 9) | IC50 (Dipeptidyl peptidase 2) | IC50 (Prolyl endopeptidase)
CC1(C)O[C@@H](CF)[C@H](COc2ccc3nccc(C(=O)NCC(=O)N4CC(F)(F)C[C@H]4C#N)c3c2)O1 | 0.00046 µM | > 10 µM | > 10 µM | > 10 µM | > 10 µM | > 10 µM
C[N+](C)(CF)CCCOc1ccc2nccc(C(=O)NCC(=O)N3CC(F)(F)C[C@H]3C#N)c2c1 |  |  |  |  | > 10 µM | 
N#C[C@@H]1CC(F)(F)CN1C(=O)CNC(=O)c1ccnc2ccc(OCC(O)CF)cc12 (stereo partly drawn) | 0.00437 µM | > 10 µM | > 10 µM | > 10 µM | > 10 µM | > 10 µM
